Laboratory results from patent US20040192720A1, “Novel heteroaryl alkylamide derivatives useful as bradykinin receptor modulators” (priority 2003, published 2004).

Legend:
[1] = target: T1, human B2 bradykinin receptors (CHO-hB2 cell membranes) (Homo sapiens, UniProt P30411); experiment: [35S]GTPγS Binding Assay in CHO-hB2 Cell Membranes; type: biochemical; details: bradykinin-stimulated [35S]GTPγS binding; for Functional Activity (% Basal): number in parentheses, concentration not given
T1 construct: purchased Receptor Biology, Inc. (Baltimore, Md.); host or cells: CHO-hB2 cells (membranes)
T1 sequence (P30411 1-391): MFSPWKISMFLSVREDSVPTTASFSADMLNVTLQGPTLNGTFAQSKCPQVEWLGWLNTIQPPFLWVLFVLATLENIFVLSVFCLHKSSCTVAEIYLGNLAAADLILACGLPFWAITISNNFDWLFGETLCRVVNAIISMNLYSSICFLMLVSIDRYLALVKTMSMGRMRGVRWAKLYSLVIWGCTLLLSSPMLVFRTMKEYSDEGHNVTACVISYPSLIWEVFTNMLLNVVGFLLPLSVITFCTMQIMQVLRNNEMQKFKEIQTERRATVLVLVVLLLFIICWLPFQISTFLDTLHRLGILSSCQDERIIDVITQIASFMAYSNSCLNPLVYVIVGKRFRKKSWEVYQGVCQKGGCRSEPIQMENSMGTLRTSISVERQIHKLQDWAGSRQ
Protocol: [^35S]GTPγS Binding Assay in CHO-hB2Cell Membranes
CHO-hB2 cell membranes were purchased from Receptor Biology, Inc. (Baltimore, Md.). 10 mg/mL of membrane protein was suspended in 10 mM TRIS-HC pH 7.2, 2 mM EDTA, 10% sucrose.
Membranes were added into 15 mL ice cold binding assay buffer. The assay buffer contained 50 mM HEPES, pH 7.6, 5 mM MgCl2, 100 mM NaCl, 1 mM DTT and 1 mM EDTA. The membrane suspension was homogenized twice with a Polytron and centrifuged at 3000 rpm for 10 min. The supernatant was then centrifuged at 18,000 rpm for 20 min. The pellet was saved in a tube and resuspended.
The pellet membranes (40 μg/mL) were preincubated with SPA (scintillation proximity assay) beads (20 mg/mL) at 25 C. ° for 45 min in the assay buffer. The SPA beads (5 mg/mL) coupled with membranes (10 μg/mL) were then incubated with 0.5 nM [^35S]GTPγS in the same HEPES buffer containing 50 μM GDP in total volume of 200 μL. Bradykinin was used to stimulate [^35S]GTPγS binding. Varying concentrations of drugs were incubated with bradykinin to inhibit bradykinin-stimulated [^35S]GTPγS binding. The basal binding was tested in the absence of bradykinin and no specific binding was tested in the present 10 μM unlabeled GTPγS. The radioactivity was quantified on a Packard Top Count, and calculated.
% of Basal=(stimulated binding−non specific binding)/(basal binding−non specific binding)×100.

[2] = test system: kaolin-induced abdominal irritant response; experiment: Graded Abdominal Irritant Test (GrAIT); type: in vivo; details: po; for % Inhibition: 30 minutes before kaolin 100 mg/kg i.p., dose not given; for ED50: read-out: ED50 (μmol/Kg, p.o.)
Protocol: Graded Abdominal Irritant Test The […] Abdominal Irritant Test (GrAIT) is a modification of the methods described by Koster et al. (Koster R., Anderson M and DeBeer E. J. Fed. Proc. 1959, 18, 412). Prior to the test (30 minutes for oral or subcutaneous administration), each animal was administered a known analgesic, a test compound, or vehicle (0.05N HCl) by one of two routes (oral or subcutaneous). Kaolin (100 mg/kg) was injected intraperitoneally (using a standard 23G needle) at a volume of 10 mL/kg of body weight. Following the administration of the chemical agent, the animals were placed in glass bell jars (approximately 15 cm in diameter with wood chips on the bottom). […] A contraction of the abdominal musculature and an elongation of the body, which extends through to the hindlimbs, characterize this response. The responses were counted during the 15-minute period after the injection of the kaolin. A mechanical counter or a personal computer was used to collect the number of counts per animal, and animals were observed no more than 5 at a time. The mean number of counts (±SEM) for a group of animals receiving a known analgesic or test compound was compared to the mean for the group of animals which received only vehicle pretreatment (Control group). For each dose, % inhibition of the response was calculated. For each test compound, the ED50 value was calculated using a log dose regression analysis program (PharmTools software).

Row | SMILES | Functional Activity (word result) [1] | Functional Activity (% Basal) [1] [% Basal] | % Inhibition [2] [%] | ED50 [2] [µmol/kg]
1 | Cc1ccc2cccc(OCc3c(C)ccc(N(C)C(=O)Cc4ccc(C(=O)c5cnccc5Cl)n4C)c3C)c2n1 [Compound 77, 2-[5-(4-Chloro-pyridine-3-carbonyl)-1-methyl-1H-pyrrol-2-yl]-N-[2,4-dimethyl-3-(2-methyl-quinolin-8-yloxymethyl)-phenyl]-N-methyl-acetamide] | Antagonist | 62 | 70 | 80.9
2 | Cc1ccc2cccc(OCc3c(Cl)ccc(N(C)C(=O)CCc4ccc(C(=O)c5cnccc5Cl)n4C)c3Cl)c2n1 [Compound 89, 3-[5-(4-Chloro-pyridine-3-carbonyl)-1-methyl-1H-pyrrol-2-yl]-N-[2,4-dichloro-3-(2-methyl-quinolin-8-yloxymethyl)-phenyl]-N-methyl-propionamide] | Antagonist | 51 | 98 | 22.5
3 | Cc1ccc2cccc(OCc3c(C)ccc(N(C)C(=O)Cc4ccc(C(=O)c5cnccc5C#N)n4C)c3C)c2n1 [Compound 78, 2-[5-(4-Cyano-pyridine-3-carbonyl)-1-methyl-1H-pyrrol-2-yl]-N-[2,4-dimethyl-3-(2-methyl-quinolin-8-yloxymethyl)-phenyl]-N-methyl-acetamide] | Antagonist | 83 | 82 | 114
